# According to ChEMBL document CHEMBL1141818, “Annonaceous acetogenins: recent progress” (J Nat Prod, 1999):
# Experiments:
# [1] = Toxicity in brine shrimp; type: organism-based; conditions: artemia, in vivo
# MCF7 = experiment: Cytotoxicity against human MCF7 cells; type: functional; conditions: for EC50: Homo sapiens, MCF7, read-out: ED50 (the source's name)
# MIA PaCa-2 = experiment: Cytotoxicity against human MIA PaCa2 cells; type: functional; conditions: for EC50: Homo sapiens, MIA PaCa-2, read-out: ED50 (the source's name)
# PC-3 = experiment: Cytotoxicity against human PC-3 cells; type: functional; conditions: Homo sapiens, PC-3; read-out: ED50 (the source's name)
# HT-29 = experiment: Cytotoxicity against human HT-29 cells; type: functional; conditions: for EC50: Homo sapiens, HT-29, read-out: ED50 (the source's name)
# A549 = experiment: Cytotoxicity against human A549 cells; type: functional; conditions: for EC50: Homo sapiens, A549, read-out: ED50 (the source's name)
# A498 = experiment: Cytotoxicity against human A-498 cells; type: functional; conditions: Homo sapiens, A498; read-out: ED50 (the source's name)
# HCT-8 = experiment: Cytotoxicity against human HCT8 cells; type: functional, cell-based
# Blattella germanica = experiment: Ratio of LT50 for Blattella germanica Muncie second instars to LT50 for Blattella germanica Jwax second instars; type: functional
SMILES,LC50 [1],EC50 (MCF7),EC50 (MIA PaCa-2),EC50 (PC-3),EC50 (HT-29),EC50 (A549),EC50 (A498),ED50 (MCF7),ED50 (MIA PaCa-2),ED50 (A549),IC50 (HCT-8),Ratio (Blattella germanica),ED50 (HT-29)
CCCCCCCCCCCCCC[C@H](O)CCCCCCC[C@H](O)CCCCC[C@@H](O)CC1=C[C@H](C)OC1=O [LONGANIN],12 µg/mL,3.4 µg/mL,0.011 µg/mL,0.4 µg/mL,0.61 µg/mL,0.011 µg/mL,0.039 µg/mL,,,,,,
CCCCCCCCCC[C@@H](O)[C@H]1CC[C@H]([C@H](O)CC[C@H](O)[C@@H]2CC[C@@H](CCCCC[C@@H]3CC(CC(C)=O)C(=O)O3)O2)O1 (stereo partly drawn),3.3 µg/mL,> 1 µg/mL,> 1 µg/mL,0.0011 µg/mL,> 1 µg/mL,0.21 µg/mL,0.21 µg/mL,,,,,,
CCCCCCCCCCCC[C@@H](O)[C@H]1CC[C@H]([C@H](O)CCCCCC[C@H](O)CCCCCCCC2=C[C@H](C)OC2=O)O1,0.13 µg/mL,,,0.17 µg/mL,0.14 µg/mL,,0.15 µg/mL,5.8 ×10⁻⁷ ug/ml,1 ×10⁻⁵ ug/ml,6.5 ×10⁻⁷ ug/ml,,,
CCCCCCCCCCCC[C@H](O)[C@@H]1CC[C@H]([C@H](O)CCCCC(O)CCCCC[C@@H](O)CC2=C[C@@](C)(O)OC2=O)O1 (stereo partly drawn),,,,,,,,,,,< 10 µg/mL,,
CCCCCCCCCCCC[C@@H](O)[C@@H](O)CC[C@H](O)[C@@H]1CC[C@@H](C[C@@H](O)C[C@@H](O)CCC[C@@H](O)CC2=C[C@H](C)OC2=O)O1 [MURICOREACIN],19 µg/mL,1.3 µg/mL,2.3 µg/mL,0.025 µg/mL,0.57 µg/mL,0.0023 µg/mL,0.71 µg/mL,,,,,,
CCCCCCCCCCCC[C@@H](O)[C@H]1CCC(C2CCC(CC(O)CCCCC[C@@H](O)CC3=C[C@H](C)OC3=O)O2)O1 (stereo partly drawn) [ROLLINACIN],3.5 µg/mL,0.16 µg/mL,2 µg/mL,2.5 µg/mL,2.1 µg/mL,0.046 µg/mL,1.6 µg/mL,,,,,,
CCCCCCCCCC[C@@H](O)[C@H]1CC[C@H]([C@H]2CC[C@H]([C@H](O)CCCC[C@H](O)CCCCC[C@@H](O)CC3=C[C@H](C)OC3=O)O2)O1,0.43 µg/mL,0.33 µg/mL,> 1 µg/mL,0.53 µg/mL,0.76 µg/mL,0.67 µg/mL,> 1 µg/mL,,,,,,
CCCCCCCCCC[C@@H](O)[C@H]1CC[C@H]([C@H](O)CCCC[C@H](O)CCCCCCC[C@@H](O)CC2=C[C@H](C)OC2=O)O1 [GLACIN A],0.11 µg/mL,0.0044 µg/mL,0.0086 µg/mL,0.0098 µg/mL,2.3 µg/mL,1.5 µg/mL,1.3 µg/mL,,,,,,
CCCCCCCCCCCC[C@@H](O)[C@H]1CC[C@H]([C@H](O)CCCC(O)C(O)CCCCC[C@@H]2CC(CC(C)=O)C(=O)O2)O1 (stereo partly drawn),4.8 µg/mL,0.61 µg/mL,< 0.01 µg/mL,1.3 µg/mL,< 0.01 µg/mL,< 0.01 µg/mL,0.12 µg/mL,,,,,,
CCCCCCCCCC[C@@H](O)[C@H]1CC[C@H]([C@H]2CC[C@H]([C@H](O)CCCCCC(=O)CCCC[C@@H]3CC(CC(C)=O)C(=O)O3)O2)O1 (mixture of isomers),0.67 µg/mL,0.26 µg/mL,1.2 µg/mL,1.1 µg/mL,0.004 µg/mL,0.0057 µg/mL,0.46 µg/mL,,,,,,
CC1(C)C(C=C(Cl)Cl)C1C(=O)OC(C#N)c1cccc(Oc2ccccc2)c1 (stereo not drawn) [ALPHA-CYPERMETHRIN],,,,,,,,,,,,2,
CCCCCCCCCCCC/C=C\CC[C@@H](O)[C@H]1CC[C@H]([C@H](O)CC[C@H](O)CCCCC[C@H]2CC(CC(C)=O)C(=O)O2)O1 (mixture of isomers),< 0.3 µg/mL,3.7 µg/mL,0.045 µg/mL,1.5 µg/mL,2.9 µg/mL,1.8 µg/mL,2.2 µg/mL,,,,,,
CCCCCCCCCCCCC(=O)C[C@@H]1C[C@@H](O)[C@@H](CC[C@H](O)[C@@H]2CC[C@@H](CCCCC[C@@H](O)CC3=C[C@H](C)OC3=O)O2)O1 [GONIOTRIOCIN],2.7 µg/mL,,1.4 µg/mL,0.26 µg/mL,0.0012 µg/mL,0.033 µg/mL,1.1 µg/mL,3.3 ×10⁻⁵ ug/ml,,,,,
CCCCCCCCCCCCCC[C@@H](O)[C@H]1CC[C@H]([C@H](O)CCCC[C@H](O)CCCCC[C@@H]2CC(CC(C)=O)C(=O)O2)O1 (mixture of isomers),0.04 µg/mL,,0.074 µg/mL,0.057 µg/mL,,0.014 µg/mL,0.12 µg/mL,7.6 ×10⁻⁴ ug/ml,,,,,7.4 ×10⁻⁴ ug/ml
CCCCCCCCCC[C@H](O)[C@H](O)CCCC[C@H]1CC[C@H]([C@H]2CC[C@H]([C@H](O)CCCCC[C@@H](O)CC3=C[C@H](C)OC3=O)O2)O1 [GLABRACIN A],0.13 µg/mL,,1.8 µg/mL,1.1 µg/mL,,,0.001 µg/mL,4.2 ×10⁻⁶ ug/ml,,2.8 ×10⁻⁶ ug/ml,,,5.7 ×10⁻⁶ ug/ml
